Test results published in patent publication US11453666B2, “Autotaxin inhibitory compounds” (Cancer Research Technology Limited, priority 2015, dated 2022).
Where two headings read alike, the source gives them in different places.

Molecular target: human recombinant ATX (Homo sapiens, UniProt Q13822)
Assay: Autotaxin (ATX) activity Quanta Red assay
Assay type: biochemical
Summary of the method: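 Recombinant human ATX reaction stopped after 2 h with Quanta Red stop solution; fluorescence read at […]. Controls with DMSO, with and without ATX; IC50 in duplicate.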

[1] = read-out: Activity (ATX activity, Quanta Red assay; IC50)
[2] = human recombinant ATX 0.8 μg/mL, 2 hours at room temperature, IC50 determined in duplicate, read-out: Activity (ATX activity, Quanta Red assay; IC50)
[3] = Table 3: commercially available compounds tested for Autotaxin activity (Quanta Red assay), read-out: Activity

| SMILES | IC50 [1] | other results |
| --- | --- | --- |
| COc1ccc(Cn2c(CCC(=O)N[C@@H](C)c3ccc(Cl)cc3)nc3cccnc32)cc1 [Example 84, N-[(S)-1-(4-Chloro-phenyl)-ethyl]-3-[3-(4-methoxy-benzyl)-3H-imidazo[4,5-b]pyridin-2-yl]-propionamide] |  | IC50 [2]: 3 nM |
| C[C@H](NC(=O)CCc1nc2cccnc2n1Cc1ccc(F)cc1)c1ccccn1 [Example 68, 3-[3-(4-Fluoro-benzyl)-3H-imidazo[4,5-b]pyridin-2-yl]-N-((S)-1-pyridin-2-yl-ethyl)-propionamide] | 212 nM |  |
| COc1ccc(CNC(=O)CCc2nc3cccnc3n2Cc2ccccc2)cc1 [Example 238, 3-(3-Benzyl-3H-imidazo[4,5-b]pyridin-2-yl)-N-(4-methoxy-benzyl)-propionamide, reference compound] |  | IC50 [3]: 473 nM |
| CN(C)c1ccc(CNC(=O)CCc2nc3cccnc3n2Cc2ccc(F)c(F)c2)cc1 [Example 63, 3-[3-(3,4-Difluoro-benzyl)-3H-imidazo[4,5-b]pyridin-2-yl]-N-(4-dimethylamino-benzyl)-propionamide] | 139 nM |  |
| C[C@H](NC(=O)NCc1nc2cccnc2n1Cc1ccc(F)cc1)c1ccc(F)cc1 [Example 160, 1-[3-(4-Fluoro-benzyl)-3H-imidazo[4,5-b]pyridin-2-ylmethyl]-3-[(S)-1-(4-fluoro-phenyl)-ethyl]-urea] |  | IC50 [2]: 80 nM |
| CCOc1ccc(CCNC(=O)CCc2nc3cccnc3n2Cc2ccccc2)cc1 [Example 225, 3-(3-Benzyl-3H-imidazo[4,5-b]pyridin-2-yl)-N-[2-(4-ethoxy-phenyl)-ethyl]-propionamide] |  | IC50 (Table 2: additional compounds tested for ATX activity (Quanta Red Assay), read-out: Activity): 708 nM |
| COc1ccc(CCNC(=O)CCc2nc3cccnc3n2Cc2ccc(OC)cc2)cc1 [Example 116, 3-[3-(4-Methoxy-benzyl)-3H-imidazo[4,5-b]pyridin-2-yl]-N-[2-(4-methoxy-phenyl)-ethyl]-propionamide] | 778 nM |  |
| O=C(CCc1nc2cccnc2n1Cc1ccccc1OC(F)(F)F)NCc1ccc(OC(F)(F)F)cc1 [Example 120, N-(4-Trifluoromethoxy-benzyl)-3-[3-(2-trifluoromethoxy-benzyl)-3H-imidazo[4,5-b]pyridin-2-yl]-propionamide] | 292 nM |  |
| C[C@H](NC(=O)CCc1nc2ccncc2n1Cc1ccc(OC(F)(F)F)cc1)c1ccc(F)cc1 [Example 124, N-[(S)-1-(4-Fluoro-phenyl)-ethyl]-3-[3-(4-trifluoromethoxy-benzyl)-3H-imidazo[4,5-c]pyridin-2-yl]-propionamide] |  | IC50 [2]: 8 nM |
| COc1ccc(CNC(=O)CCc2nc3cccnc3n2Cc2ccc(C)cc2)cc1 [Example 103, N-(4-Methoxy-benzyl)-3-[3-(4-methyl-benzyl)-3H-imidazo[4,5-b]pyridin-2-yl]-propionamide] | 57 nM |  |
| COc1ccc(Cn2c(CCC(=O)NCCc3ccccc3)nc3cccnc32)cc1 [Example 237, 3-[3-(4-Methoxy-benzyl)-3H-imidazo[4,5-b]pyridin-2-yl]-N-phenethyl-propionamide, reference compound] |  | IC50 [3]: 227 nM |

Further compounds by falling IC50 [1], results first:

| IC50 [1] | SMILES | other results |
| --- | --- | --- |
| 40 nM | CC(C)(C)OC(=O)N1CCC[C@@H](CNC(=O)CCc2nc3cccnc3n2Cc2ccc(OC(F)(F)F)cc2)C1 [Example 54, (S)-3-({3-[3-(4-Trifluoromethoxy-benzyl)-3H-imidazo[4,5-b]pyridin-2-yl]-propionylamino}-methyl)-piperidine-1-carboxylic acid tert-butyl ester] |  |
| 15 nM | CC[C@H](NC(=O)CCc1nc2cccnc2n1Cc1ccc(OC)cc1)c1ccccc1 [Example 93, 3-[3-(4-Methoxy-benzyl)-3H-imidazo[4,5-b]pyridin-2-yl]-N-((S)-1-phenyl-propyl)-propionamide] |  |
| 13 nM | C[C@H](NC(=O)CCc1nc2cccnc2n1Cc1ccc(F)cc1)c1ccc(N2CCOCC2)cc1 [Example 185, 3-[3-(4-Fluoro-benzyl)-3H-imidazo[4,5-b]pyridin-2-yl]-N-[(S)-1-(4-morpholin-4-yl-phenyl)-ethyl]-propionamide] |  |
| 10 nM | C[C@H](NC(=O)CCc1cc2cccnc2n1Cc1ccc(Cl)cc1)c1ccc(F)cc1 [Example 138, 3-[1-(4-Chloro-benzyl)-1H-pyrrolo[2,3-b]pyridin-2-yl]-N-[(S)-1-(4-fluoro-phenyl)-ethyl]-propionamide] |  |
| 10 nM | C[C@H](NC(=O)CCc1nc2cccnc2n1Cc1ccc(F)c(F)c1)c1ccc(N2CCCC2)cc1 [Example 183, 3-[3-(3,4-Difluoro-benzyl)-3H-imidazo[4,5-b]pyridin-2-yl]-N-[(S)-1-(4-pyrrolidin-1-yl-phenyl)-ethyl]-propionamide] |  |
| 9 nM | C[C@H](NC(=O)CCc1nc2ccncc2n1Cc1ccc(OC(F)(F)F)cc1)c1ccc(N2CCN(C)CC2)cc1 [Example 125, N-{(S)-1-[4-(4-Methyl-piperazin-1-yl)-phenyl]-ethyl}-3-[3-(4-trifluoromethoxy-benzyl)-3H-imidazo[4,5-c]pyridin-2-yl]-propionamide] |  |
| 7 nM | COc1ccc([C@H](C)NC(=O)CCc2nc3cc(C)cnc3n2Cc2ccc(OC(F)(F)F)cc2)cc1 [Example 212, N-[(S)-1-(4-Methoxy-phenyl)-ethyl]-3-[6-methyl-3-(4-trifluoromethoxy-benzyl)-3H-imidazo[4,5-b]pyridin-2-yl]-propionamide] |  |
| 7 nM | O=C(CCc1nc2cccnc2n1Cc1ccc(F)c(F)c1)NC(CO)c1ccc(Cl)cc1 (stereo not shown) [Example 35, N-[1-(4-Chloro-phenyl)-2-hydroxy-ethyl]-3-[3-(3,4-difluoro-benzyl)-3H-imidazo[4,5-b]pyridin-2-yl]-propionamide] |  |
| 5 nM | O=C(CCc1nc2cccnc2n1Cc1ccc(F)cc1)N[C@@H](CO)c1ccccc1 [Example 28, 3-[3-(4-Fluoro-benzyl)-3H-imidazo[4,5-b]pyridin-2-yl]-N-((R)-2-hydroxy-1-phenyl-ethyl)-propionamide] |  |
| 5 nM | O=C(CCc1nc2cccnc2n1Cc1ccc(OC(F)(F)F)cc1)NCc1ccc(F)cc1 [Example 30, N-(4-Fluoro-benzyl)-3-[3-(4-trifluoromethoxy-benzyl)-3H-imidazo[4,5-b]pyridin-2-yl]-propionamide] |  |
| 3 nM | C[C@H](NC(=O)CCc1nc2cccnc2n1Cc1ccc(F)cc1)c1ccc(N2CCCCCC2)cc1 [Example 178, N-[(S)-1-(4-Azepan-1-yl-phenyl)-ethyl]-3-[3-(4-fluoro-benzyl)-3H-imidazo[4,5-b]pyridin-2-yl]-propionamide] |  |
| 3 nM | C[C@H](NC(=O)CCc1nc2cccnc2n1Cc1ccc(F)c(F)c1)c1ccc(N2CCC(N(C)C)C2)cc1 (stereo partly shown) [Example 177] |  |
| 3 nM | C[C@H](NC(=O)CCc1nc2cccnc2n1Cc1ccc(OC(F)(F)F)cc1)c1ccc(N2CCN[C@@H](C)C2)cc1 [Example 176, N-{(S)-1-[4-((S)-3-Methyl-piperazin-1-yl)-phenyl]-ethyl}-3-[3-(4-trifluoromethoxy-benzyl)-3H-imidazo[4,5-b]pyridin-2-yl]-propionamide] |  |
| 1 nM | O=C(CCc1nc2cccnc2n1Cc1ccc(OC(F)(F)F)cc1)N[C@@H](C(=O)O)C1CCCCC1 [Example 194, (R)-cyclohexyl-{3-[3-(4-trifluoromethoxy-benzyl)-3H-imidazo[4,5-b]pyridin-2-yl]-propionylamino}-acetic Acid] |  |
